Literature values as cited in patent US20230381267A1, “OXYTOCIN TREATMENT FOR HYPERMOBILE EHLERS-DANLOS SYNDROME” (Baylor College of Medicine, priority 2020, published 2023).

Legend:
[1] = IV administration, irritable bowel syndrome
[2] = intranasal, individuals with tension-type headache and migraine
[3] = humans, preliminary research

## CC[C@H](C)[C@@H]1NC(=O)[C@H](Cc2ccc(O)cc2)NC(=O)[C@@H](N)CSSC[C@@H](C(=O)N2CCC[C@H]2C(=O)N[C@@H](CC(C)C)C(=O)NCC(N)=O)NC(=O)[C@H](CC(N)=O)NC(=O)[C@H](CCC(N)=O)NC1=O [oxytocin]
Across central and peripheral modes of administration and type of noxious stimulus (heat, electric)
  average effect (Cohen d): 2.28
After exogenous administration
  duration of analgesic effects: approximately 1 hour
  time at which analgesic effects were strongest: 20 to 30 min
Systematic review Rash, AguirreCamacho and Campbell 2014
  animal studies in which oxytocin increased pain tolerance: 29 of 33
[1]
  effect on pain tolerance: significant effect
[2]
  headache relief: relieve headache in a dose-dependent manner
[3]
  pain sensitivity: decreases pain sensitivity
